In ChEMBL document CHEMBL6087488, “Development of the First-in-Class FEM1B-Recruiting Histone Deacetylase Degraders” (J Med Chem, 2025):
Active and inactive are the calls of the source. No cut-off for these calls is given here.

Columns and labels:
[1] = tested on: MM1.S; assay: Antiproliferative activity against human MM1.S cells assessed as cell viability measured after 72 hrs by CellTiter-Glo cell viability assay; format: functional, cell-based
[2] = target: Histone deacetylase 4 (Homo sapiens, UniProt P56524); assay: Inhibition of human HDAC4 using Boc-Lys(Tfa)-AMC as substrate incubated for 90 mins by fluorescence based assay
[3] = target: T1, Protein fem-1 homolog B/Histone deacetylase 1 (Homo sapiens, UniProt Q13547+Q9UK73); assay: PROTAC activity at FEM1B/HDAC1 in human MM1.S cell lysate assessed as neddylation-dependent protein degradation at 1 uM measured after 24 hrs by Western immunoassay; format: subcellular
Target sequence in this assay (Q13547 whole entry, looked up): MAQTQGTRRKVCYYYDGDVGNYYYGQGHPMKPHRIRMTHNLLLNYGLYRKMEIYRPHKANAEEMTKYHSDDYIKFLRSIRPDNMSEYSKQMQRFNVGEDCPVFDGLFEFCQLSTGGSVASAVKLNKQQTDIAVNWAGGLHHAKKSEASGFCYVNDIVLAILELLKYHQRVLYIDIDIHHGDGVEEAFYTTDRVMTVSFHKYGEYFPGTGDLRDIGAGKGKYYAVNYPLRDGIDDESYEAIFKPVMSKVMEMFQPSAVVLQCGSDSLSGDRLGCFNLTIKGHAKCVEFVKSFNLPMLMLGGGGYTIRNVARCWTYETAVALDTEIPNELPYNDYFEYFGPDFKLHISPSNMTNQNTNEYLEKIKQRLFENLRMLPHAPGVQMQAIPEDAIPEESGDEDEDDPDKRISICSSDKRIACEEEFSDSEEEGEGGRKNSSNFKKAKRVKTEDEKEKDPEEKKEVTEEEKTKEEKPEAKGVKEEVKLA
Target sequence in this assay (Q9UK73 whole entry, looked up): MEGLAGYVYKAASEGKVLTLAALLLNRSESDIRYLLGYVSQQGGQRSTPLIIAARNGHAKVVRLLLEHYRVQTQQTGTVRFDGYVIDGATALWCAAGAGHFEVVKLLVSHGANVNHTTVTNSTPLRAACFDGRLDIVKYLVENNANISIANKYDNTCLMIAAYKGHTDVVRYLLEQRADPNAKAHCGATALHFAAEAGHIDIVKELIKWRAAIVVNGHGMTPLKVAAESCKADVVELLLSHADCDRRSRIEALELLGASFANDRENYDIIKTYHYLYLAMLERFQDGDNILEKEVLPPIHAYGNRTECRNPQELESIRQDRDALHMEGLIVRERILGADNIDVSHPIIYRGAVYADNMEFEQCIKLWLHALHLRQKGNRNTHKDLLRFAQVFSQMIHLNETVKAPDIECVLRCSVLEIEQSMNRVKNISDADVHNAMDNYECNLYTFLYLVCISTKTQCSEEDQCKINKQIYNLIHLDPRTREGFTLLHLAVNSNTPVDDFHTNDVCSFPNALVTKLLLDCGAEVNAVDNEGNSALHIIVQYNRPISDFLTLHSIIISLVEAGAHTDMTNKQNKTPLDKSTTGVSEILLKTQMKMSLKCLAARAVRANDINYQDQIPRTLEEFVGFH

[4] = target: T1, Protein fem-1 homolog B/Histone deacetylase 1; assay: PROTAC activity at FEM1B/HDAC1 in human MV4-11 cell lysate assessed as protein degradation at 10 uM measured after 24 hrs by Western immunoassay relative to control; format: subcellular
Target sequence in this assay (Q13547 whole entry, looked up): as the sequence (Q13547 whole entry, looked up) above
Target sequence in this assay (Q9UK73 whole entry, looked up): as the sequence (Q9UK73 whole entry, looked up) above

[5] = target: T1, Protein fem-1 homolog B/Histone deacetylase 1; assay: PROTAC activity at FEM1B/HDAC1 in human MDA-MB-231 cell lysate assessed as protein degradation at 10 uM measured after 24 hrs by Western immunoassay relative to control; format: subcellular
Target sequence in this assay (Q13547 whole entry, looked up): as the sequence (Q13547 whole entry, looked up) above
Target sequence in this assay (Q9UK73 whole entry, looked up): as the sequence (Q9UK73 whole entry, looked up) above

[6] = target: T1, Protein fem-1 homolog B/Histone deacetylase 1; assay: PROTAC activity at FEM1B/HDAC1 in human U-87 MG cell lysate assessed as protein degradation at 10 uM measured after 24 hrs by Western immunoassay relative to control; format: subcellular
Target sequence in this assay (Q13547 whole entry, looked up): as the sequence (Q13547 whole entry, looked up) above
Target sequence in this assay (Q9UK73 whole entry, looked up): as the sequence (Q9UK73 whole entry, looked up) above

[7] = tested on: MV4-11; assay: Antiproliferative activity against human MV4-11 cells assessed as cell viability measured after 72 hrs incubation by MTT assay; format: functional, cell-based; details: MV4-11, 72 h
[8] = tested on: MDA-MB-231; assay: Antiproliferative activity against human MDA-MB-231 cells assessed as cell viability up to 50 uM measured after 72 hrs incubation by MTT assay relative to control; format: functional
[9] = tested on: U-87 MG; assay: Antiproliferative activity against human U-87 MG cells assessed as cell viability up to 50 uM measured after 72 hrs incubation by MTT assay relative to control; format: functional, U-87MG ATCC
[10] = tested on: MM1.S; assay: Induction of cell cycle arrest in human MM1.S cells assessed as reduction in cells at […] phase at 10 uM measured after 48 hrs by propidium iodide based flow cytometry; format: functional
[11] = tested on: MM1.S; assay: Induction of cell cycle arrest in human MM1.s cells assessed as increase in cells at Sub-G1 phase at 10 uM measured after 48 hrs by propidium iodide based flow cytometry; format: functional
[12] = tested on: MM1.S; assay: Induction of apoptosis in human MM1.S cells assessed as increase in early apoptotic cells at 10 uM measured after 48 hrs by annexin V-FITC/PI staining based assay; format: functional, cell-based
[13] = tested on: MM1.S; assay: Induction of apoptosis in human MM1.S cells assessed as increase in late apoptotic cells at 10 uM measured after 48 hrs by annexin V-FITC/PI staining based assay; format: functional, cell-based
[14] = tested on: MM1.S; assay: Antiproliferative activity against human MM1.S cells assessed as cell viability up to 50 uM measured after 72 hrs incubation by MTT assay; format: functional
[15] = target: T1, Protein fem-1 homolog B/Histone deacetylase 1; assay: PROTAC activity at FEM1B/HDAC1 in human MM1.S cell lysate assessed as initial degradation at 1 uM measured after 24 hrs by Western immunoassay; format: subcellular
Target sequence in this assay (Q13547 whole entry, looked up): as the sequence (Q13547 whole entry, looked up) above
Target sequence in this assay (Q9UK73 whole entry, looked up): as the sequence (Q9UK73 whole entry, looked up) above

[16] = target: T1, Protein fem-1 homolog B/Histone deacetylase 1; assay: PROTAC activity at FEM1B/HDAC1 in human MM1.S cell lysate assessed as initial degradation measured after 24 hrs by Western immunoassay; format: subcellular
[17] = target: T1, Protein fem-1 homolog B/Histone deacetylase 1; assay: PROTAC activity at FEM1B/HDAC1 in human MM.1S cell lysate assessed as maximal initial degradation at measured after 24 hrs by Western immunoassay relative to control; format: subcellular; details: MM1.S
Target sequence in this assay (Q13547 whole entry, looked up): as the sequence (Q13547 whole entry, looked up) above
Target sequence in this assay (Q9UK73 whole entry, looked up): as the sequence (Q9UK73 whole entry, looked up) above

[18] = target: Histone deacetylase 1 (Homo sapiens, UniProt Q13547); assay: Inhibition of human recombinant HDAC1 using ZMAL (Z-(Ac)Lys-AMC) as substrate incubated for 90 mins by fluorescence based assay
[19] = target: Histone deacetylase 2 (Homo sapiens, UniProt Q92769); assay: Inhibition of human HDAC2 using ZMAL (Z-(Ac)Lys-AMC) as substrate incubated for 90 mins by fluorescence based assay
[20] = target: T2, Protein deacetylase HDAC6 (Homo sapiens, UniProt Q9UBN7); assay: Inhibition of human HDAC6 using ZMAL (Z-(Ac)Lys-AMC) as substrate incubated for 90 mins by fluorescence based assay
T2 sequence (Q9UBN7 whole entry): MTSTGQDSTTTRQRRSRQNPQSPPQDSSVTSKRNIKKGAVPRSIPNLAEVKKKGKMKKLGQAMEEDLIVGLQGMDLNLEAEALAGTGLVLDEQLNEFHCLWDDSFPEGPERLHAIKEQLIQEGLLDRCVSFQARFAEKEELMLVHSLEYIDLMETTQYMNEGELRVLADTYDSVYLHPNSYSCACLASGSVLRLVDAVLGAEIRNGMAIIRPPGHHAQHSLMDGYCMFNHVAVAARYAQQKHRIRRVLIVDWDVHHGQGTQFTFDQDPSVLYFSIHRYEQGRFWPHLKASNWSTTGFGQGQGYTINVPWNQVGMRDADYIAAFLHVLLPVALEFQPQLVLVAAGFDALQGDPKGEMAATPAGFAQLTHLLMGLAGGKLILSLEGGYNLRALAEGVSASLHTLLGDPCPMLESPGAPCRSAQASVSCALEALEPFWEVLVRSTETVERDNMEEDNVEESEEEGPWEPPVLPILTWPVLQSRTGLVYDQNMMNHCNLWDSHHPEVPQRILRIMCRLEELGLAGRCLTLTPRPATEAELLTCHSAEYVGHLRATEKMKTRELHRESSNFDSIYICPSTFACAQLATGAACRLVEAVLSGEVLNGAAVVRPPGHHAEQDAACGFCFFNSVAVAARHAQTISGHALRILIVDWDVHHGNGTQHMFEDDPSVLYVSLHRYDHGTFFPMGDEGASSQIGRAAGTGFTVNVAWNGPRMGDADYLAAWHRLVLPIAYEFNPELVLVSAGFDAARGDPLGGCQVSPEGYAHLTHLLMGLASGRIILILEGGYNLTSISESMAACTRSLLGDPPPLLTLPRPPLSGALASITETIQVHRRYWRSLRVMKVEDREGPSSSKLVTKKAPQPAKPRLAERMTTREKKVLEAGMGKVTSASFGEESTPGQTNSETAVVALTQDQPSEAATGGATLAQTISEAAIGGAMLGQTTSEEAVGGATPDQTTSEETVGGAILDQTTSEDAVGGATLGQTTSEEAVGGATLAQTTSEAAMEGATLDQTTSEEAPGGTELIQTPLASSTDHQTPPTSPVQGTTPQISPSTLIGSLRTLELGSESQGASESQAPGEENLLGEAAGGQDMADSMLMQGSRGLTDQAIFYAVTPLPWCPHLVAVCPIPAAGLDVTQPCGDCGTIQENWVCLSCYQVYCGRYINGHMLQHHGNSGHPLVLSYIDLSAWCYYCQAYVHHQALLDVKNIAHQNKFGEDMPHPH

[21] = target: T1, Protein fem-1 homolog B/Histone deacetylase 1; assay: PROTAC activity at FEM1B/HDAC1 in human MM1.S cell lysate assessed as protein degradation at 1 uM measured after 24 hrs by Western immunoassay; format: subcellular
[22] = target: Protein fem-1 homolog B/Histone deacetylase 2 (Homo sapiens) (UniProt Q92769+Q9UK73); assay: PROTAC activity at FEM1B/HDAC2 in human MM1.S cell lysate assessed as protein degradation at 1 uM measured after 24 hrs by Western immunoassay; format: subcellular
[23] = target: Protein fem-1 homolog B/Histone deacetylase 3 (Homo sapiens) (UniProt O15379+Q9UK73); assay: PROTAC activity at FEM1B/HDAC3 in human MM1.S cell lysate assessed as protein degradation at 1 uM measured after 24 hrs by Western immunoassay; format: subcellular
[24] = target: Protein fem-1 homolog B/Protein deacetylase HDAC6 (Homo sapiens) (UniProt Q9UBN7+Q9UK73); assay: PROTAC activity at FEM1B/HDAC6 in human MM1.S cell lysate assessed as protein degradation at 1 uM measured after 24 hrs by Western immunoassay; format: subcellular
[25] = target: Protein fem-1 homolog B/Histone deacetylase 4 (Homo sapiens) (UniProt P56524+Q9UK73); assay: PROTAC activity at FEM1B/HDAC4 in human MM1.S cell lysate assessed as protein degradation at 1 uM measured after 24 hrs by Western immunoassay; format: subcellular
[26] = target: Protein fem-1 homolog B/Histone deacetylase 8 (Homo sapiens) (UniProt Q9BY41+Q9UK73); assay: PROTAC activity at FEM1B/HDAC8 in human MM1.S cell lysate assessed as protein degradation at 1 uM measured after 24 hrs by Western immunoassay; format: subcellular
[27] = tested on: MM1.S; assay: Antiproliferative activity against human MM1.S cells assessed as cell viability measured after 72 hrs incubation by MTT assay; format: functional, cell-based
[28] = tested on: MDA-MB-231; assay: Antiproliferative activity against human MDA-MB-231 cells assessed as cell viability measured after 72 hrs incubation by MTT assay; format: functional, cell-based; details: MDA-MB-231, 72 h
[29] = tested on: U-87 MG; assay: Antiproliferative activity against human U-87 MG cells assessed as cell viability measured after 72 hrs incubation by MTT assay; format: functional, cell-based, U-87MG ATCC

Histone deacetylase 4, sequence (P56524 whole entry): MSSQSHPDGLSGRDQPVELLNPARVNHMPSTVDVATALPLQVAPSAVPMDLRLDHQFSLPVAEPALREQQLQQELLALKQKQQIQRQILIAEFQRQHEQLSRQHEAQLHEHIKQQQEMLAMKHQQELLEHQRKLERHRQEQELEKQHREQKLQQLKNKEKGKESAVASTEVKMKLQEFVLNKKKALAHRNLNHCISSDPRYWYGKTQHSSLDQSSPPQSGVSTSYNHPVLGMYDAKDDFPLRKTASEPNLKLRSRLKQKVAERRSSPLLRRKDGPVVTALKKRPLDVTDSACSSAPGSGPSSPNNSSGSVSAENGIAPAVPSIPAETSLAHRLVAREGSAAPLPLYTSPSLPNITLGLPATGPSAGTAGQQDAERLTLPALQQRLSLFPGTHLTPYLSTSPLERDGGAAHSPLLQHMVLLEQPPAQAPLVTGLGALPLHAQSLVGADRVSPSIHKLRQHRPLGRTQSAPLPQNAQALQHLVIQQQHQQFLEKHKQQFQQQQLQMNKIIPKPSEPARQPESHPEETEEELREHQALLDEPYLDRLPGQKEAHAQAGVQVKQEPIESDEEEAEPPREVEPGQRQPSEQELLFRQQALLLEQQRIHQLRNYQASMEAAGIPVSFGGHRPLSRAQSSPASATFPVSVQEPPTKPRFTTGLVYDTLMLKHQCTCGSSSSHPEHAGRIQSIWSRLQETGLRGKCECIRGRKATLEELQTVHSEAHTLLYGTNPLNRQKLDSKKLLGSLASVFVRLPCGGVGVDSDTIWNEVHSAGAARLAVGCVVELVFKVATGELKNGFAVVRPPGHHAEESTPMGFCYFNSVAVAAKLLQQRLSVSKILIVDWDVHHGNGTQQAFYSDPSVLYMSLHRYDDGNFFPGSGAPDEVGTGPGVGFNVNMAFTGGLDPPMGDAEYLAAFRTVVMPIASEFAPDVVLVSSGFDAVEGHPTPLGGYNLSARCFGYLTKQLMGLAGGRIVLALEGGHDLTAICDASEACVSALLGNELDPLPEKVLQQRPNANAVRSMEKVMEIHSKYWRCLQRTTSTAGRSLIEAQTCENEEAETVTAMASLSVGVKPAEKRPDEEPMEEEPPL
Protein fem-1 homolog B/Histone deacetylase 8 (Homo sapiens), sequence (Q9BY41 whole entry, looked up): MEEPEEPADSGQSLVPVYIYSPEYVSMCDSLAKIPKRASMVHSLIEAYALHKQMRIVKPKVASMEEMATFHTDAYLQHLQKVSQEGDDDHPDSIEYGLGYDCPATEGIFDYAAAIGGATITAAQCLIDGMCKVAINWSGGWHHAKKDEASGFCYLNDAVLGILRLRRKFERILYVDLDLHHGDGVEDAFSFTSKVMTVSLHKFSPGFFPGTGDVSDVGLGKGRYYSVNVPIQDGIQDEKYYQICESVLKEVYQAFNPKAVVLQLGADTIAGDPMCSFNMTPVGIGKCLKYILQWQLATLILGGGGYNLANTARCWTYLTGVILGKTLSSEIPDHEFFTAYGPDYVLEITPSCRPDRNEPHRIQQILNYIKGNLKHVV
Protein fem-1 homolog B/Histone deacetylase 8 (Homo sapiens), sequence (Q9UK73 whole entry, looked up): as the sequence (Q9UK73 whole entry, looked up) above
Histone deacetylase 1, sequence (Q13547 whole entry): as the sequence (Q13547 whole entry, looked up) above
Histone deacetylase 2, sequence (Q92769 whole entry): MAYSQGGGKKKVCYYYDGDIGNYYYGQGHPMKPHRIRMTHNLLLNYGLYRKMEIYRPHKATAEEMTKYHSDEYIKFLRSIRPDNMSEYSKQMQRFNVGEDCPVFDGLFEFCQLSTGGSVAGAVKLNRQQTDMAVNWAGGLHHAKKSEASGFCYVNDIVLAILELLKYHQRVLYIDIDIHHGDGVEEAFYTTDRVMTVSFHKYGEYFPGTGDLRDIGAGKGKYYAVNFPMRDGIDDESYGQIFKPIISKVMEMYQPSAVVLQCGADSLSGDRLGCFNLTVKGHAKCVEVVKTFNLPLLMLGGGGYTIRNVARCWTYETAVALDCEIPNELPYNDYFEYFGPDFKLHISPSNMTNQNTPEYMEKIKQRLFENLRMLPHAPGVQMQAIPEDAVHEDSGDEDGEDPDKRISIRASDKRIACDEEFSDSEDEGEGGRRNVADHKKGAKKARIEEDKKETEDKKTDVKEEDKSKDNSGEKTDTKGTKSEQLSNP

SMILES: N#CCCN(C(=O)CCl)c1ccc2c(c1)OCCN2CC(=O)NCC(=O)Nc1ccc(C(=O)NCCCCCCC(=O)NO)cc1
- EC50 ([1]; mm1.s): 5.02 µM

SMILES: O=C(CCCCCCC(=O)Nc1ccccc1)NO [VORINOSTAT]
- IC50 [2]: Not_active

SMILES: N#CCCN(C(=O)CCl)c1ccc2c(c1)OCCN2CC(=O)NC[C@H]1CC[C@H](C(=O)Nc2ccc(C(=O)NCCCCCCC(=O)NO)cc2)CC1
- EC50 ([1]; Homo sapiens, MM1.S, 72 h): 6.43 µM

SMILES: CCC(=O)N(CCC#N)c1ccc2c(c1)OCCN2CC(=O)NCC(=O)Nc1ccc(C(=O)NCCCCCCC(=O)NO)cc1.O=C(O)C(F)(F)F
- Activity [3]: inactive
- Activity [4]: inactive
- Activity [5]: inactive
- Activity [6]: inactive
- EC50 [7]: 14.1 µM
- Activity [8]: <=25%
- Activity [9]: <=25%
- Activity [10]: inactive
- Activity [11]: inactive
- Activity [12]: inactive
- Activity [13]: inactive
- Activity [14]: <=25%

SMILES: N#CCCN(C(=O)CCl)c1ccc2c(c1)OCCN2CC(=O)NCCCCCCCCCCCC(=O)Nc1ccc(C(=O)NCCCCCCC(=O)NO)cc1
- EC50 ([1]; Homo sapiens, MM1.S, 72 h): 1.52 µM

SMILES: N#CCCN(C(=O)CCl)c1ccc2c(c1)OCCN2CC(=O)NC1CCC(C(=O)Nc2ccc(C(=O)NCCCCCCC(=O)NO)cc2)CC1 (stereo not given)
- EC50 ([1]; Homo sapiens, MM1.S, 72 h): 7.75 µM

SMILES: N#CCCN(C(=O)CCl)c1ccc2c(c1)OCCN2CC(=O)NCCCCCC(=O)Nc1ccc(C(=O)NCCCCCCC(=O)NO)cc1
- EC50 ([1]; Homo sapiens, MM1.S, 72 h): 7.39 µM

SMILES: N#CCCN(C(=O)CCl)c1ccc2c(c1)OCCN2CC(=O)N1CCC(C(=O)Nc2ccc(C(=O)NCCCCCCC(=O)NO)cc2)CC1
- EC50 ([1]; Homo sapiens, MM1.S, 72 h): 4.73 µM
- Activity [15]: 61.9%
- DC50 [16]: 0.482 µM
- Emax [17]: 79.8%
- IC50 [18]: 0.094 µM
- IC50 [19]: 0.196 µM
- IC50 ([2]; read-out: IC50): 8.6 µM
- IC50 [20]: 0.006 µM
- Activity [21]: Active
- Activity [22]: Active
- Activity [23]: Active
- Activity [24]: inactive
- Activity [25]: inactive
- Activity [26]: inactive
- EC50 [27]: 4.73 µM
- EC50 [7]: 1.14 µM
- EC50 [28]: 8.68 µM
- EC50 [29]: 66 µM
- Activity [10]: Active
- Activity [11]: Active
- Activity [12]: Active
- Activity [13]: Active
